Laboratory results reported in US20240262835A1, “PRMT5 INHIBITING COMPOUNDS AND USES THEREOF” (ANTENGENE DISCOVERY LIMITED, priority 2023, published 2024).
Like-named read-outs stand apart in the source and are kept apart here.

Key:
[1] = in vitro; conditions: human, microsomes
[2] = in vitro; conditions: rat, microsomes
[3] = in vitro; conditions: cynomolgus monkey, microsomes
[4] = Hepatic metabolic stability (HMS) assay, rat hepatocytes; conditions: rat, cryopreserved hepatocytes
Procedure: 1) 10 mM test compounds were provided.
(§8) 2) 30 mM positive control stock solutions: Dissolved accurate amount of positive control compounds in dimethyl sulfoxide (DMSO).
(§9) 3) 1000× Stock Solution: Diluted 10 mM test compounds and 30 mM positive control compounds to 1 mM and 3 mM with DMSO in 96-well plates.
(§10) 4) 100× Dosing Solution: Diluted 1 mM test compounds and 3 mM positive control compounds to 100 μM and 300 μM dosing solutions with ACN.
(§11) 5) Preparation of 0.5×10^6/mL cells suspension: cryopreserved cells were thawed, isolated and suspended in Incubation Medium, then diluted with pre-warmed Incubation Medium to 0.5×10^6 cells/mL.
(§12) 6) Add 198 μL of pre-warmed cell suspensions in 96-well plates.
(§13) 7) Preparation of Quenching Plate: Transfer 125 μL of stop solution in a set of pre-labeled 96-well plates.
(§14) 8) Spike 2 μL dosing solution to each well of 96-well plates in duplicate.
(§15) 9) For TO Samples, mix to achieve a homogenous suspension for about 1 min, then immediately transfer 25 μL of each sample into well containing 125 μL of ice-cold stop solution followed by mixing.
(§16) 10) Incubate all plates at 37° C. in a 95% humidified incubator at 5% CO2 to start the reactions with constant shaking.
(§17) 11) At 15, 30, 60 and 90 min, mix samples and then transfer 25 μL of each sample at each time point to well containing 125 μL of ice-cold stop solution followed by mixing.
(§18) 12) Medium Control (MC) sample plates (labeled as TO-MC and T90-MC) are prepared in the same way as cell incubation except that medium was used instead of cell suspension.
(§19) 13) At each corresponding time point, stop the reactions by removing the plates from incubator and mixing with 125 μL of ice-cold stop solution.
(§20) 14) Vortex the plates immediately on a plate shaker at 600 rpm for 10 minutes. Then, centrifuge all sample plates at 3220×g for 20 min at 4° C.
(§21) 15) After centrifugation, 80 μL/well of supernatant in the sample plates are transferred to another set of pre-labeled 96-well plates which containing 240 μL of ultra pure water according to the plate map.
(§22) 16) Analytical plates are sealed and store at 4° C. until LC-MS/MS analysis.
(§23) The remaining percents of test articles after incubation were calculated by the follow equations:
(§24) Use the following equation of first order kinetics to calculate T1/2 and CLint:

[5] = Hepatic metabolic stability (HMS) assay, human hepatocytes; conditions: human, cryopreserved hepatocytes
Procedure: 1) 10 mM test compounds were provided.
as §8, §9, §10, §11, §12, §13, §14, §15, §16, §17, §18, §19, §20, §21, §22, §23, §24

[6] = Hepatic metabolic stability (HMS) assay, cynomolgus monkey hepatocytes; conditions: cynomolgus monkey, cryopreserved hepatocytes
Procedure: 1) 10 mM test compounds were provided.
as §8, §9, §10, §11, §12, §13, §14, §15, §16, §17, §18, §19, §20, §21, §22, §23, §24

[7] = target: CYP2C19 (Homo sapiens (Human), UniProt P33261); test: CYP isoforms inhibitory assay in human liver microsome, CYP2C19; type: in vitro ADME; conditions: substrate s-mephenytoin
Chain of CYP2C19 (P33261 whole entry, canonical isoform): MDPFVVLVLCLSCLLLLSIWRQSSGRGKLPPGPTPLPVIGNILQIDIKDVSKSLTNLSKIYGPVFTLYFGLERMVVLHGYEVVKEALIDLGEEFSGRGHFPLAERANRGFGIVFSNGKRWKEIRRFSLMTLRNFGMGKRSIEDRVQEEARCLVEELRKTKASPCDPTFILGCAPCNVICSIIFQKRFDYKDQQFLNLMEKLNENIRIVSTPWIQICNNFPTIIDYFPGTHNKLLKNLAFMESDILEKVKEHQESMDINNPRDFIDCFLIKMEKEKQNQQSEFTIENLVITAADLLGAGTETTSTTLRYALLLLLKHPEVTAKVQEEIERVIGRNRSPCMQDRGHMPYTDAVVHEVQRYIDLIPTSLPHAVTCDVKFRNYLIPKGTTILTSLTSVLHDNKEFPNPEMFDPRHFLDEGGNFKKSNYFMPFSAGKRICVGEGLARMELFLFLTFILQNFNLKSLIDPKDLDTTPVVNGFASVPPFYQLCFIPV
Procedure: (§1) CYP isoforms inhibitory activities of test compounds were measured in human liver microsome.
(§2) Preparation details of these substrates are given in below table. The substrate stock solution was stored in a −20° C. freezer. Prior to use, the substrate stock solution was removed from the freezer and allowed to rise to room temperature. Then the substrate stock solution was mixed on a whirly mixer for 30 seconds.
(§3) HLMs were stored in a −80° C. freezer. Prior to use, the pooled HLM was removed from the freezer and allowed to thaw in a 37° C. water bath and then stored on wet ice.
(§4) The positive control inhibitors and their concentrations used by each isozyme are summarized below.
(§5) All samples were incubated in a 37° C. water bath, with three parallels for each concentration of the test compound and two parallels for each concentration of the positive control inhibitor. 100 μL of microsome working solution was taken and added 2 μL of the test product or positive inhibitor working solution. 2 μL solvents was added to the solvent control, and put in a water bath to pre-incubate for 10 min. After pre-incubation, 98 μL of NADPH regeneration solution was added to all samples to start the reaction. Then the mixture was put back in the water bath and incubated for a certain period of time.
(§6) The reaction was quenched by 200 μL stop solution. […]
(§7) IC50 values were determined using 3- or 4-parameter logistic equation.

[8] = target: CYP3A4 (Homo sapiens (Human), UniProt P08684); test: CYP isoforms inhibitory assay in human liver microsome, CYP3A4
Chain of CYP3A4 (P08684 whole entry, canonical isoform): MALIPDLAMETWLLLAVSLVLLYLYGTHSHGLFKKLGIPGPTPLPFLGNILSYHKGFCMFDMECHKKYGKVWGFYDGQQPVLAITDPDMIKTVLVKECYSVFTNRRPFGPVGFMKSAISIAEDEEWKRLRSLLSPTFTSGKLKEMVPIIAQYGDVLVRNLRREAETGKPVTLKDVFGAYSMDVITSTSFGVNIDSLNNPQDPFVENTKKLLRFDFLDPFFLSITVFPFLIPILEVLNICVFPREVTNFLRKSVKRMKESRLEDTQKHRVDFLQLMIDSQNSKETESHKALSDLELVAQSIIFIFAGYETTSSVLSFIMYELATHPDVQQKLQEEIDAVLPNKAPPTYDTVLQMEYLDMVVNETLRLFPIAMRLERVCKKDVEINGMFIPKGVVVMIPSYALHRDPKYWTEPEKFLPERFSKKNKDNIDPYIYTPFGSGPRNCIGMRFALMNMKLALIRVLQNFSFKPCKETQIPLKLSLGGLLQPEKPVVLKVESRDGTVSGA
Procedure: as §1, §2, §3, §4, §5, §6, §7

[9] = test system: cryopreserved hepatocytes
Procedure: 1) 10 mM test compounds were provided.
as §8, §9, §10, §11, §12, §13, §14, §15, §16, §17, §18, §19, §20, §21, §22, §23, §24

[10] = test system: cryopreserved hepatocytes; remark: listed apart in the source
Procedure: 1) 10 mM test compounds were provided.
as §8, §9, §10, §11, §12, §13, §14, §15, §16, §17, §18, §19, §20, §21, §22, §23, §24

[11] = mouse, microsomes
[12] = Liver microsome metabolic stability (LMS) assay, cynomolgus monkey

CN(C(=O)c1ccc2nc(N)c3cncn3c2c1)[C@@H]1COc2cc(C(F)(F)F)ccc21 [Compound 12]
half-life at 1 μM [1]: > 2.42 h
half-life at 1 μM [2]: > 2.42 h
half-life at 1 μM [3]: 0.935 h
half-life at 1 μM [4]: 2.26 h
half-life at 1 μM [5]: 1.84 h
half-life at 1 μM [6]: 1.11 h

CN(C(=O)c1ccc2nc(N)c3cncn3c2c1)C1COc2cc(C(F)(F)F)ccc21 (stereo not shown) [Compound 17]
IC50 [7]: 15.1 µM
IC50 ([8]; microsomes): 27.3 µM
IC50 ([8]; read-out: IC50 CYP3A4 (midazolam), human liver microsome, substrate midazolam): > 30 µM
CLint (liver) R [9]: 49.8 mL/min/kg
CLint (hep) R ([9]; rat): 10.6 μL/min/10^6
T1/2 (hepatocytes) R ([9]; rat): 2.172 h
CLint (liver) C [10]: 62.0 mL/min/kg
CLint (hep) C ([10]; cynomolgus monkey): 17.2 μL/min/10^6
T1/2 (hepatocytes) C ([10]; cynomolgus monkey): 1.34 h
T1/2 of LMS, M [11]: 1.61 h

CN(C(=O)c1cc2c(cn1)nc(N)c1cncn12)C1CC(F)(F)c2cc(C(F)(F)F)ccc21 (stereo not shown) [Compound 24]
CLint (mic) C ([12]; cynomolgus monkey liver microsome): 9.9 µL/min/mg
T1/2 of LMS, C ([12]; cynomolgus monkey liver microsome 0.5 mg protein/mL, 1 μM, NADPH): 2.338 h
CLint (liver) C ([12]; cynomolgus monkey liver microsome, scaled to liver): 13.3 mL/min/kg
